In patent US8084592B2, “Multivalent entrain-and-amplify immunotherapeutics for carcinoma” (MannKind Corporation, priority 2005, dated 2011):
“Also recorded” adds a separate entry of the source. Non-standard residues stand in square brackets, D forms with d. No end group written: not given here. Nle = CCCC[C@H](N)C(=O)O; Nva = CCC[C@H](N)C(=O)O

Tests used:
MHC class I (A2.1) = MHC class I (A2.1) (Homo sapiens, UniProt P04439, D140Y/D185E/D98H/E176V/E277Q/G131W/G231S/I119V/I121R/I166T/I218V/L300P/L318F/N151K/N90K/P208A/P217A/Q86G/Q94H/R138H/R169H/T345S); experiment: Binding characteristics (affinity, stability) of PSMA288-297 and analogs
[1] = test system: T cells that recognized native PSMA288-297 peptide; experiment: Cross-reactive immunogenicity of PSMA288-297 analogs, IFN-γ ELISPOT; type: in vivo, HHD transgenic mice; settings: 25 μg peptide + 12.5 μg pI:C per lymph node, day 0, 3, 14, 17
Procedure: Groups of HHD transgenic mice (n=8) were immunized with peptide (natural epitope PSMA288-297, or analogs bearing substitutions at primary or secondary anchor residues) by direct inoculation into the inguinal lymph nodes, with 25 μg in […]+12.5 μg of pI:C to each lymph node at day 0, 3, 14 and 17.
Mice were sacrificed at 10 days after the last boost, and splenocytes prepared and assessed for IFN-γ production by ELISPOT analysis. Various numbers of splenocytes/well were stimulated with 10 μg/ml of native peptide in ELISPOT plates coated with anti-IFN-γ antibody. At 48 hours after incubation, the assay was developed and the frequency of cytokine-producing T cells that recognized native PSMA288-297 peptide was automatically counted. The data is represented in FIG. 15 as the number of spot forming colonies/well (mean of triplicates+SD).

[2] = test system: T cell line specific for the native epitope; experiment: Cross-reactivity of PSMA288-297 analogs: IFN-gamma secretion from T cell line; type: cell-based, HHD transgenic mice; settings: stimulating with 10 μg/ml of analog (approximately 10 μM)
Excerpt: A methodology was devised to allow rapid and rational screening of peptide analogs in a fashion coherent with proposed methods of use and modeling the overall immunologic properties (Kon and Koff relative to MHC interaction and TCR binding properties in an integrated fashion). In some instances, the method included generating T cell lines against a natural (non-mutated) epitope (SSX-241-49), and using an immunization strategy potent enough to generate a useful response in transgenic mice carrying human MHC (such as the A2 allele). Peptide analogs were interrogated ex vivo in the presence of competent APCs and the functional impact of T cells specific for natural (non-mutated) epitopes measured. The evaluation was done at various concentrations of analog, because the expected effect was biphasic in the case of cross reactive peptides (activating at limited concentrations and inhibiting at higher concentrations, due to antigen-induced cell death, AICD). Measurement of the following three parameters were used to define basic and useful characteristics of peptide analogs: • 1. […]
The method used for the generation of T cell lines was the following: HHD transgenic mice carrying an A2 human allele (Pascolo et al., J. Exp Med. 185(12):2043-51, 1997, which is hereby incorporated herein by reference in its entirety) were immunized with 50 μg of SSX-2 natural epitope (41-49) admixed with 25 μg of plpC at day 0, 4, 14 and 18 by bilateral administration into the inguinal lymph nodes. […] The supernatant was harvested and the concentration of IFN-gamma assessed by standard methods such as ELISA.
Using the procedures described in application Ser. Nos. 11/455,278 and 11/454,633, each of which is hereby incorporated by reference in its entirety, the binding characteristics of PSMA288-297 and analogs were assessed in comparison to each other see (see FIG. 12). […] Cross reactivity with the native epitope was assessed by using the analog peptides to stimulate IFN-gamma secretion from a T cell line specific for the native epitope, essentially as described in Example 12. […]

[3] = test system: T cell line specific for the native epitope; experiment: Cross-reactivity of PRAME425-433 analogs: IFN-gamma secretion from T cell line; type: cell-based, HHD transgenic mice; settings: analog peptide at approximately 0.3 μM, normalized to native peptide
Excerpt: A methodology was devised to allow rapid and rational screening of peptide analogs in a fashion coherent with proposed methods of use and modeling the overall immunologic properties (Kon and Koff relative to MHC interaction and TCR binding properties in an integrated fashion). In some instances, the method included generating T cell lines against a natural (non-mutated) epitope (SSX-241-49), and using an immunization strategy potent enough to generate a useful response in transgenic mice carrying human MHC (such as the A2 allele). Peptide analogs were interrogated ex vivo in the presence of competent APCs and the functional impact of T cells specific for natural (non-mutated) epitopes measured. […]
The method used for the generation of T cell lines was the following: HHD transgenic mice carrying an A2 human allele (Pascolo et al., J. Exp Med. 185(12):2043-51, 1997, which is hereby incorporated herein by reference in its entirety) were immunized with 50 μg of SSX-2 natural epitope (41-49) admixed with 25 μg of plpC at day 0, 4, 14 and 18 by bilateral administration into the inguinal lymph nodes. […] The supernatant was harvested and the concentration of IFN-gamma assessed by standard methods such as ELISA. […]

HLA-A*0201 = HLA-A*0201 (Homo sapiens, UniProt P04439, D140Y/D185E/D98H/E176V/E277Q/G131W/G231S/I119V/I121R/I166T/I218V/L300P/L318F/N151K/N90K/P208A/P217A/Q86G/Q94H/R138H/R169H/T345S); experiment: HLA-A*0201 binding characteristics of PRAME425-433 and analogs
Procedure: The positive control for binding was melan-A26-35 A27L. […] Cross reactivity with the native epitope was assessed by using the analog peptides to stimulate IFN-gamma secretion from a T cell line specific for the native epitope, essentially as described in Example 12. The data shown in FIGS. 16-18 were generated by stimulating with analog peptide at approximately 0.3 μM. […] In some cases, the reported values are the average of two determinations.

[4] = test system: splenocytes responding to the PRAME425-433 peptide; experiment: Cross-reactive immunogenicity of PRAME analog, IFN-γ ELISA of splenocytes; type: in vivo, HHD transgenic mice; settings: pCTLR2 plasmid prime, peptide boost 2.5 μg day 28 and 31, versus native peptide boost
Procedure: This was followed by two peptide boosts (2.5 μg) at day 28 and 31, of native peptide or the PRAME epitope analog L426Nva L433Nle.
Mice were sacrificed at 10 days after the last boost, and splenocytes prepared and assessed for IFN-γ production after in vitro stimulation at 0.5×10^6 cells/well, with 10 μg/ml of native peptide.

GLPSIPVHPI (homo sapien) [PSMA288-297, reference compound]
binding characteristics (MHC class I (A2.1)): generally superior binding characteristics | immunogenicity against the native epitope [1]: poorly immunogenic; also recorded: poor immunogenicity

GLPSIPVHPV [PSMA288-297 I297V]
immunogenicity against the native epitope [1]: increased priming of immune responses against the native epitope | IFN-gamma production (cross-reactivity) compared to native peptide [2]: increased the amount of IFN-gamma produced

PRAME425-433 C-terminal amide: PRAME425-433 with carboxy-terminus modified by the addition of an amide group (SLLQHLIGL-NH2)
IFN-γ production (cross-reactivity) compared to native peptide [3]: within twofold of the native peptide

PSMA288-297 P1 Abu: PSMA288-297 analog, Abu at P1
immunogenicity against the native epitope [1]: slightly higher (but significant) activity than the native peptide | IFN-gamma production (cross-reactivity) compared to native peptide [2]: marginally similar cross-reactivity

PSMA288-297 PO Nva: PSMA288-297 analog, Nva at PO
stability of binding (half-time of dissociation) compared to native peptide (MHC class I (A2.1)): improved the stability of binding | immunogenicity against the native epitope [1]: slightly higher (but significant) activity than the native peptide | IFN-gamma production (cross-reactivity) compared to native peptide [2]: increased the amount of IFN-gamma produced

SNvaLQHLIGNle (S[Nva]LQHLIG[Nle]) [L426Nva L433Nle]
binding characteristics (affinity and stability) (HLA-A*0201): similar, somewhat improved binding characteristics | IFN-γ production in response to the PRAME425-433 peptide (ELISA) [4]: significant enhancement of IFN-γ production | IFN-γ production (cross-reactivity) compared to native peptide [3]: significant level of cross-reactivity
